Results taken from US20260014147A1, “STAT6 DEGRADERS” (Gilead Sciences, Inc., priority 2024, published 2026).
pEC50: −log10 of the molar value.

Columns and labels:
[1] = test system: Eotaxin-3 (CCL26) release in human whole blood stimulated with IL-4; experiment: Human Whole Blood Eotaxin-3 Assay (IL-4 stimulated, inhibition of eotaxin-3 release); type: cell-based; conditions: EC50 provided for test compounds with >80% Emax, geometric mean across assay runs and batches
Protocol: This was a human whole blood assay using recombinant human Interleukin 4 to stimulate the blood and measuring the ability of the test compounds to inhibit eotaxin-3 release. The biological activities of the test compounds have been tested in human whole blood stimulated with IL-4 measuring Eotaxin-3 release. The test compounds were added to 384 well clear flat-bottom plate in a 4-fold serial dilution in triplicates using a liquid handler. Human whole blood stabilized in lithium-heparin tubes was added in a volume of 65 uL per well, resulting in a final DMSO concentration of 0.5%. The plate is incubated for 2 h at 37° C. under 5% CO2/95% air. Subsequently, 5 μL of recombinant human IL-4 (R&D Systems, cat #204-ILB) was added to the wells to a final concentration of 400 pM. The plate was incubated for 48 h at 37° C. under 5% CO2/95% air. The plate was spun down for 10 minutes at 500×g and 20 uL supernatant was harvested and transferred to a 384 well v-bottom plate using a liquid handler and stored at −20° C. until further analysis. 10 uL supernatant was used to measure the level of Eotaxin-3 (CCL26) using Human Eotaxin-3 MSD kit from Mesocsale (Cat #K251UEK-4). The assay was performed according to the manufacture instructions.
The data from the human whole blood eotaxin-3 assay is shown below for Examples 2q11, 2110, and 2c49 (where the effect in % is plotted against the test concentration in M on a log-scale).

[2] = target: T1, STAT6 (endogenous, HiBiT-tagged) in HeLa LgBiT clone 4.14 cells (Homo sapiens, UniProt P42226); experiment: STAT6 Degrader Assay (HiBiT based, HeLa LgBiT clone 4.14 cells, luminescence, DC50); type: cell-based; conditions: geometric mean; for DC50: DC50 provided for test compounds with >80% Emax, read-out: STAT6 degradation DC50; for Emax: Emax provided for test compounds with <80% Emax (and 2c15), read-out: STAT6 degradation Emax
T1 construct: These cells express endogenous STAT6; host or cells: HeLa LgBiT clone 4.14
T1 sequence (P42226 1-847): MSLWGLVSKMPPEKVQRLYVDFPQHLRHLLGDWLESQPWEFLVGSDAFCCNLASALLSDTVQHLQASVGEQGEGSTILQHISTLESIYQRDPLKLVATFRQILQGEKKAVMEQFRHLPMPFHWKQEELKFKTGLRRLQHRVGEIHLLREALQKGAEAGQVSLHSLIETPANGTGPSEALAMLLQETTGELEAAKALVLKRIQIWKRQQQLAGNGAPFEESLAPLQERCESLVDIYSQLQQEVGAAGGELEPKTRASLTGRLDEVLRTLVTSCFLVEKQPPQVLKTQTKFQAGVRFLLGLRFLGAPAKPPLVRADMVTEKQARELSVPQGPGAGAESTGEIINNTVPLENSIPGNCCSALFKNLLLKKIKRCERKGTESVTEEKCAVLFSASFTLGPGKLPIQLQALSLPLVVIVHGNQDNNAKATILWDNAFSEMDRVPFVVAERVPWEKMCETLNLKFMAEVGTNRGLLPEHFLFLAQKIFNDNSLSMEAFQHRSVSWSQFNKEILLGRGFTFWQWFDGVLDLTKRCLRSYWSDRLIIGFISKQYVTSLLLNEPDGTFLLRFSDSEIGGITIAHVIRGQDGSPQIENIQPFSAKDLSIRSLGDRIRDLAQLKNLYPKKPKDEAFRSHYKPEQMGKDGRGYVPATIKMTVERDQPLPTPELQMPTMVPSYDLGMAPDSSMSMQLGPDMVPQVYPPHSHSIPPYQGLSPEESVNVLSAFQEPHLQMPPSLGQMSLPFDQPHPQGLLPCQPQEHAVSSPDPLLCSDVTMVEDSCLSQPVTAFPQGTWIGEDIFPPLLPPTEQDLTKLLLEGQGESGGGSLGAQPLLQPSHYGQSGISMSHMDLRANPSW
Summary of the method: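 Remaining STAT6 is read as NanoBiT luminescence after 0.5 h with Nano-Glo, in HeLa LgBiT clone 4.14 cells expressing endogenous HiBiT-tagged STAT6, following 4-24 h compound incubation at 37 °C. Full degradation is set by 50 µM terfenadine, which kills the cells; degradation plotted against log compound concentration.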

Row | SMILES | pEC50 ([1]; Homo sapiens) | DC50 [2] [nM] | Emax [2] [%] | pEC50 [1]
1 | COCc1nc2cc(-c3ccnc4c3cc([C@H](C)N3CCC(c5ccc(C(=O)N6CCC(CN7CCN(c8ccc(N[C@H]9CCC(=O)NC9=O)cc8F)CC7)CC6)cc5)CC3)n4C)ccc2[nH]1 (single isomer, unassigned) [Example 2c53] | 7.51 | 4.7 | – | –
2 | C[C@@H](c1cc2c(-c3ccc(N)nc3C#N)ccnc2n1C)N1CCC(c2ccc(C(=O)N3CCC(CN4CCN(c5ccc(NC6CCC(=O)NC6=O)cc5F)CC4)CC3)cc2)CC1 (stereo partly drawn) [Example 2c22, 6-amino-3-(2-((1S)-1-(4-(4-(4-((4-(4-((2,6-dioxopiperidin-3-yl)amino)-2-fluorophenyl)-piperazin-1-yl)methyl)piperidine-1-carbonyl)phenyl)piperidin-1-yl)ethyl)-1-methyl-1H-pyrrolo[2,3-b]pyridin-4-yl) picolinonitrile] | 6.82 | 28.2 | – | –
3 | CNc1ccc(-c2ccnc3c2cc([C@H](C)N2CC=C(c4c(C)cc(C(=O)N5CCC(CN6CCN(c7ccc(NC8CCC(=O)NC8=O)c(OC)c7)CC6)CC5)cc4F)CC2)n3C)cn1 (stereo partly drawn) [Example 2c46, 3-((4-(4-((1-(3-fluoro-5-methyl-4-(1-((S)-1-(1-methyl-4-(6-(methylamino)pyridin-3-yl)-1H-pyrrolo[2,3-b]pyridin-2-yl)ethyl)-1,2,3,6-tetrahydropyridin-4-yl)benzoyl)piperidin-4-yl)methyl)piperazin-1-yl)-2-methoxyphenyl)amino)piperidine-2,6-dione] | 7.23 | 21.4 | – | –
4 | C[C@@H](c1cc2c(-c3ccc4[nH]c(=O)n(C)c4c3)ccnc2n1C)N1CCC(c2ccc(C(=O)N3CCC(CN4CCN(c5ccc(NC6CCC(=O)NC6=O)cc5F)CC4)CC3)cc2)CC1 (stereo partly drawn) [Example 2c28, 3-((3-fluoro-4-(4-((1-(4-(1-((S)-1-(1-methyl-4-(3-methyl-2-oxo-2,3-dihydro-1H-benzo[d]imidazol-5-yl)-1H-pyrrolo[2,3-b]pyridin-2-yl)ethyl)piperidin-4-yl)benzoyl)piperidin-4-yl)methyl)piperazin-1-yl)phenyl)amino)piperidine-2,6-dione] | 7.02 | – | 70 to 80 | –
5 | C[C@@H](c1cc2c(-c3ccc(N)nc3)ccnc2n1C)N1CCC(c2ccc(C(=O)N3CCC(CN4CCN(c5ccc(N[C@H]6CCC(=O)NC6=O)cc5F)CC4)CC3)cc2)CC1 (single isomer, unassigned) [Example 2c20] | – | 9.6 | – | 7.08
6 | C[C@@H](c1cc2c(-c3ccc(N)nc3)ccnc2n1C)N1CCC(c2ccc(C(=O)N3CCn4nc(CN5CCC(c6ccc(N[C@@H]7CCC(=O)NC7=O)cc6F)CC5)cc4C3)cc2)CC1 (single isomer, unassigned) [Example 2q10] | 8.49 | 1 | – | –
7 | C[C@@H](c1cc2c(-c3ccc(N)nn3)ccnc2n1C)N1CCC(c2ccc(C(=O)N3CCC(CN4CCN(c5ccc(NC6CCC(=O)NC6=O)cc5F)CC4)CC3)cc2)CC1 (stereo partly drawn) [Example 2c27, 3-((4-(4-((1-(4-(1-((S)-1-(4-(6-aminopyridazin-3-yl)-1-methyl-1H-pyrrolo[2,3-b]pyridin-2-yl)ethyl)piperidin-4-yl)benzoyl)piperidin-4-yl)methyl)piperazin-1-yl)-3-fluorophenyl)amino)piperidine-2,6-dione] | 6.77 | – | 70 to 80 | –
8 | C[C@@H](c1cc2c(-c3ccc(N)nc3)ccnc2n1C)N1CCC(c2ccc(C(=O)N3CCn4nc(CN5CCC(c6ccc(N[C@H]7CCC(=O)NC7=O)cc6F)CC5)cc4C3)cc2)CC1 (single isomer, unassigned) [Example 2q11] | 8.23 | 0.8 | – | –
9 | COCc1nc2cc(-c3ccnc4c3cc([C@H](C)N3CCC(c5ccc(C(=O)N6CCC(CN7CCN(c8ccc(N[C@@H]9CCC(=O)NC9=O)cc8F)C[C@H]7C)CC6)cc5)CC3)n4C)ccc2[nH]1 (single isomer, unassigned) [Example 2f13] | 7.81 | 2.5 | – | –
10 | COCc1nc2ccc(-c3ccnc4c3cc([C@H](C)N3CCC(c5ccc(C(=O)N6CCC(CN7CCN(c8ccc(NC9CCC(=O)NC9=O)cc8F)CC7)CC6)cc5)CC3)n4C)cc2[nH]1 (stereo partly drawn) [Example 2c16, 3-((3-fluoro-4-(4-((1-(4-(1-((S)-1-(4-(2-(methoxymethyl)-1H-benzo[d]imidazol-6-yl)-1-methyl-1H-pyrrolo[2,3-b]pyridin-2-yl)ethyl)piperidin-4-yl)benzoyl)piperidin-4-yl)methyl)piperazin-1-yl)phenyl)amino)piperidine-2,6-dione] | 7.65 | 1.2 | – | –
11 | COCc1nc2cc(-c3ccnc4c3cc([C@H](C)N3CCC(c5ccc(C(=O)N6CCC(CN7CCN(c8ncc(NC9CCC(=O)NC9=O)cc8F)CC7)CC6)cc5)CC3)n4C)ccc2[nH]1 (stereo partly drawn) [Example 2n12, 3-((5-fluoro-6-(4-((1-(4-(1-((S)-1-(4-(2-(methoxymethyl)-1H-benzo[d]imidazol-5-yl)-1-methyl-1H-pyrrolo[2,3-b]pyridin-2-yl)ethyl)piperidin-4-yl)benzoyl)piperidin-4-yl)methyl)piperazin-1-yl)pyridin-3-yl)amino)piperidine-2,6-dione] | 7.39 | – | 70 to 80 | –
12 | C[C@@H](c1cc2c(-c3ncc(N)cc3F)ccnc2n1C)N1CCC(c2ccc(C(=O)N3CCC(CN4CCN(c5ccc(NC6CCC(=O)NC6=O)cc5F)CC4)CC3)cc2)CC1 (stereo partly drawn) [Example 2c30, 3-((4-(4-((1-(4-(1-((S)-1-(4-(5-amino-3-fluoropyridin-2-yl)-1-methyl-1H-pyrrolo[2,3-b]pyridin-2-yl)ethyl)piperidin-4-yl)benzoyl)piperidin-4-yl)methyl)piperazin-1-yl)-3-fluorophenyl)-amino)piperidine-2,6-dione] | 6.29 | – | 30 to 40 | –
13 | C[C@@H](c1cc2c(-c3ccc(N)nc3)ccnc2n1C)N1CCC(c2ccc(C(=O)N3CCC(CN4CCN(c5ccc(NC6CCC(=O)NC6=O)cc5F)CC4)CC3)cc2)CC1 (stereo partly drawn) [Example 2c14, 3-((4-(4-((1-(4-(1-((S)-1-(4-(6-aminopyridin-3-yl)-1-methyl-1H-pyrrolo[2,3-b]pyridin-2-yl)ethyl)-piperidin-4-yl)benzoyl)piperidin-4-yl)methyl)piperazin-1-yl)-3-fluorophenyl)amino)piperidine-2,6-dione] | 7.19 | 6.6 | – | –
14 | C[C@@H](c1cc2c(-c3ccc(N)nc3)ccnc2n1C)N1CCC(c2ccc(C(=O)N3CCC(CN4CCN(c5ccc(N[C@H]6CCC(=O)NC6=O)cc5F)CC4)CC3)cc2)CC1 (single isomer, unassigned) [Example 2c19] | 6.96 | 10.5 | – | –
15 | COCc1nc2cc(-c3ccnc4c3cc([C@H](C)N3CCC(c5ccc(C(=O)N6CCC(CN7CCN(c8ccc(NC9CCC(=O)NC9=O)cc8F)C[C@H]7C)CC6)cc5)CC3)n4C)ccc2[nH]1 (stereo partly drawn) [Example 2f1, 3-((3-fluoro-4-((R)-4-((1-(4-(1-((S)-1-(4-(2-(methoxymethyl)-1H-benzo[d]imidazol-5-yl)-1-methyl-1H-pyrrolo[2,3-b]pyridin-2-yl)ethyl)piperidin-4-yl)benzoyl)piperidin-4-yl)methyl)-3-methylpiperazin-1-yl)phenyl)amino)piperidine-2,6-dione] | 7.60 | 3.4 | – | –
